One substance from patent US20220054588A1, “USE OF SAP FOR THE TREATMENT OF EUROTIOMYCETES FUNGI INFECTIONS” (HUMANITAS MIRASOLE S.P.A., priority 2018, published 2022) can be followed below.

The assay has as its system human neutrophils. The experiment in a line: Phagocytosis of A. fumigatus conidia by isolated human neutrophils in normal or complement-depleted human sera. Type of assay: cell-based. Here is the method:
FIG. 8 depicts the initiation of classical complement activation at the bases of SAP-mediated phagocytosis. a) fluorescein-labelled AF conidia (1.6×10^6) phagocytosis by freshly isolated human neutrophils (2×10^5) in presence of sera depleted (−) from complement components and the effect of SAP opsonisation after 1 and 30 min AF conidia (2×10^8) opsonisation with 100 μg of human native SAP. 5% (left) or 10% (right) of human sera were used. Mean±SEM;*, P<0.05;**, P<0.01;***, P<0.005;***, P<0.0001 (Mann-Whitney test). b) FACS analysis of C1q deposition on AF conidia (1×10^7) in presence of plasma from wt or Apcs^−/− mice. Mean±SEM;*, P=0.05.
Human neutrophils were isolated from fresh whole blood of healthy volunteers through separation from erythrocytes by 3% dextran (GE Healthcare Life Sciences) density gradient sedimentation followed by Ficoll-Paque PLUS (GE Healthcare Life Sciences) and 62% Percoll® (Sigma-Aldrich) centrifugation as previously described (Moalli et al., 2010). Purity, determined by FACS analysis on forward scatter/side scatter parameters, was routinely >98%. 1×10^5 neutrophils were incubated for 1 and 30 min at 37° C. in 50 μl RPMI-1640 medium with 5 and 10% normal human serum (NS) or complement depleted sera and 1×10^5 FITC-labelled A. fumigatus conidia. Cells were transferred on ice and, after washing with PBS, pH 7.4, containing 10 mM EDTA and 0.2% bovine serum albumin (BSA; Sigma-Aldrich), FITC fluorescence in neutrophils (CD45-positive cells, neutrophils defined as FSC-A^high/SSC-A^high) was analysed by BD FACS Canto™ II Flow Cytometer (BD Biosciences). NS and sera depleted for C3, C1q, MBL, FB and FH were all obtained from CompTech (Complement Technology, Inc., USA).

Turning to “human native SAP: Native SAP from human serum purchased by Merck-Millipore; Serum Amyloid P component, SEQ ID NO: 1”, the potentiation of phagocytosis result is, setting by setting: (C1q-depleted serum) “but not”; (C3-depleted serum) “but not”; (MBL-depleted serum 5%) 55.5±17.0%; (MBL-depleted serum 10%) 19.8±6.1%; (normal human serum 5%) 37.4±10.3%; (normal human serum 10%) 18.3±2.0%.
